# Experimental data reported in ChEMBL document CHEMBL1142251, “Identification of novel inhibitors of bacterial surface enzyme Staphylococcus aureus Sortase A” (Bioorg Med Chem Lett, 2008).
# Molecular target: T1, Sortase A (Staphylococcus aureus, UniProt Q9S446)
# T1 sequence (Q9S446 whole entry): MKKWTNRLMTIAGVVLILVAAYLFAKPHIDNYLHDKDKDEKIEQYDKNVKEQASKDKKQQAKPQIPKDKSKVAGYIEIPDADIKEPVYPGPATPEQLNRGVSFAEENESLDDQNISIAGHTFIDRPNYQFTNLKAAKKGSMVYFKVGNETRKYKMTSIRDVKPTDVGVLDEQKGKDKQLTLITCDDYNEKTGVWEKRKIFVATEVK
# Test: Inhibition of Staphylococcus aures sortase A by FRET assay
row,Structure (SMILES),IC50 [µM]
1,COC(=O)c1cc(NC(=O)/C=C/c2cccs2)ccc1N1CCOCC1,71
2,CS(=O)(=NC=C(C#N)C(=O)c1cccs1)c1ccc(Oc2ccc([N+](=O)[O-])cn2)cc1 (stereo not given),400
3,O=C(CCc1ccco1)Nc1ccc(N2CCOCC2)c(C(=O)O)c1,> 600
4,O=C(/C=C/c1cccs1)Nc1ccc(N2CCOCC2)c(CO)c1,73
5,O=C(/C=C/c1cccs1)Nc1ccc(N2CCOCC2)c(C(=O)O)c1,75
6,O=C(CCc1cccs1)Nc1ccc(N2CCOCC2)c(C(=O)O)c1,> 600
7,O=C(O)/C=C/C(=O)Nc1ccc(NC(=O)c2ccccc2O)cc1,125
8,Nc1nccc(-c2ccc(NC(=O)Nc3ccc(Cl)cc3)cc2)n1,400
9,O=Cc1cc(NC(=O)/C=C/c2ccco2)ccc1N1CCOCC1,107
10,COC(=O)c1cc(NC(=O)/C=C/c2ccco2)ccc1N1CCOCC1,58
11,COC(=O)c1cc(NC(=O)CCc2cccs2)ccc1N1CCOCC1,> 600
12,NC(=O)c1cc(NC(=O)/C=C/c2cccs2)ccc1N1CCOCC1,105
13,O=Cc1cc(NC(=O)/C=C/c2cccs2)ccc1N1CCOCC1,77
14,N#Cc1c(SCC(=O)c2ccc([N+](=O)[O-])cc2)[n-][s+]c1SCC(=O)c1ccc([N+](=O)[O-])cc1,97.3
15,O=C(/C=C/c1ccco1)Nc1ccc(N2CCOCC2)c(C(=O)O)c1,181
16,Cc1ccc(S(=O)(=O)NC(=O)Nc2ccc(NC(=O)c3ccccc3O)cc2)cc1,226
17,CS(=O)(=NC=C(C#N)C(=O)c1ccco1)c1ccc(Oc2ccc([N+](=O)[O-])cn2)cc1 (stereo not given),150
18,N=C(N)N/N=C/c1ccc(/C=N/NC(=N)N)cc1,275
19,COC(=O)c1cc(NC(=O)CCc2ccco2)ccc1N1CCOCC1,> 600
20,O=C(/C=C/c1ccco1)Nc1ccc(N2CCOCC2)c(CO)c1,111
